For assay [1], the system named is Mus musculus. The assay can be described thus: Antidepressant activity in ICR mouse assessed as reduction in immobility time of forced swimming at 100 mg/kg, po administered once daily for 5 days by forced swimming test relative to control. On the set-up: scale not given: the % may be the effect or the level left. The assay is classed as functional.
Assay [2] deals with Mus musculus. Nature of the assay: Antidepressant activity in ICR mouse assessed as reduction in immobility time of forced swimming at 10 mg/kg, po administered once daily for 5 days by forced swimming test relative to control. The assay is classed as functional. The arrangement: scale not given: the % may be the effect or the level left.

Our source for the Activity values is ChEMBL document CHEMBL1157315, “Saponins from Polygala japonica and their effects on a forced swimming test in mice” (2006).

With `C[C@@H]1O[C@@H](O[C@H]2[C@H](OC(=O)[C@]34CCC(C)(C)C[C@H]3C3=CC[C@@H]5[C@@]6(C)C[C@H](O)[C@H](O[C@@H]7O[C@H](CO)[C@@H](O)[C@H](O)[C@H]7O)[C@](C)(CO)[C@@H]6CC[C@@]5(C)[C@]3(C)CC4)O[C@H](CO)[C@@H](O[C@@H]3OC[C@@H](O)[C@H](O)[C@H]3O)[C@@H]2O[C@@H]2OC[C@](O)(CO)[C@H]2O)[C@H](O)[C@H](O)[C@H]1O` [POLYGALASAPONIN V], the values for the Activity with Mus musculus [1] and with Mus musculus [2] were 16.6% and 16.8%, respectively.

With `CNCCC(Oc1ccc(C(F)(F)F)cc1)c1ccccc1` (configuration not stated) [FLUOXETINE], in the assay with Mus musculus [2], the Activity came to 50.7%.

Regarding `C[C@@H]1O[C@@H](O[C@H]2[C@H](OC(=O)[C@]34CCC(C)(C)C[C@H]3C3=CC[C@@H]5[C@@]6(C)C[C@H](O)[C@H](O)[C@@](C)(C(=O)O)[C@@H]6CC[C@@]5(C)[C@]3(C)CC4)O[C@H](CO)[C@@H](O)[C@@H]2O)[C@H](O)[C@H](O)[C@H]1O[C@@H]1OC[C@@H](O)[C@H](O)[C@H]1O` [POLYGALASAPONIN E], the Activity in the assay on Mus musculus [1] is 58.1%; in the assay with Mus musculus [2], 35.4%.

As to `C[C@@H]1O[C@@H](O[C@H]2[C@H](OC(=O)[C@]34CCC(C)(C)C[C@H]3C3=CC[C@@H]5[C@@]6(C)C[C@H](O)[C@H](O)[C@@](C)(C(=O)O)[C@@H]6CC[C@@]5(C)[C@]3(C)CC4)O[C@H](CO)[C@@H](O)[C@@H]2O)[C@H](O)[C@H](O[C@H]2OC[C@@](O)(CO)[C@@H]2O)[C@H]1O[C@@H]1OC[C@@H](O)[C@H](O)[C@H]1O` [POLYGALASAPONIN H], the values for the Activity in the assay with Mus musculus [1] and in the assay on Mus musculus [2] were 51.3% and 45.8%, respectively.
